# According to US8703768B2, “Nitrogen containing heteroaryl compounds” (Hoffmann-La Roche Inc., priority 2010, dated 2014):
# Target: human PDE10A (Homo sapiens (Human), UniProt Q9Y233)
# Test: human PDE10A full length Scintillation Proximity Assay (SPA)
# Type: biochemical
# Conditions: 50 nM cGMP and 50 nM [3H]-cGMP, 20 minutes at room temperature; read-out: PDE10A inhibition IC50
# In short: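 Full-length enzyme incubated with compounds; reaction started with cGMP plus [^3H]-cGMP substrate and run 20 min at room temperature. Stopped with yttrium silicate SPA beads in 18 mM zinc sulphate, 1 h shaking, then scintillation counting; background from enzyme-free wells.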
# human PDE10A, sequence (Q9Y233 other isoform, or with tags, fused parts or gaps): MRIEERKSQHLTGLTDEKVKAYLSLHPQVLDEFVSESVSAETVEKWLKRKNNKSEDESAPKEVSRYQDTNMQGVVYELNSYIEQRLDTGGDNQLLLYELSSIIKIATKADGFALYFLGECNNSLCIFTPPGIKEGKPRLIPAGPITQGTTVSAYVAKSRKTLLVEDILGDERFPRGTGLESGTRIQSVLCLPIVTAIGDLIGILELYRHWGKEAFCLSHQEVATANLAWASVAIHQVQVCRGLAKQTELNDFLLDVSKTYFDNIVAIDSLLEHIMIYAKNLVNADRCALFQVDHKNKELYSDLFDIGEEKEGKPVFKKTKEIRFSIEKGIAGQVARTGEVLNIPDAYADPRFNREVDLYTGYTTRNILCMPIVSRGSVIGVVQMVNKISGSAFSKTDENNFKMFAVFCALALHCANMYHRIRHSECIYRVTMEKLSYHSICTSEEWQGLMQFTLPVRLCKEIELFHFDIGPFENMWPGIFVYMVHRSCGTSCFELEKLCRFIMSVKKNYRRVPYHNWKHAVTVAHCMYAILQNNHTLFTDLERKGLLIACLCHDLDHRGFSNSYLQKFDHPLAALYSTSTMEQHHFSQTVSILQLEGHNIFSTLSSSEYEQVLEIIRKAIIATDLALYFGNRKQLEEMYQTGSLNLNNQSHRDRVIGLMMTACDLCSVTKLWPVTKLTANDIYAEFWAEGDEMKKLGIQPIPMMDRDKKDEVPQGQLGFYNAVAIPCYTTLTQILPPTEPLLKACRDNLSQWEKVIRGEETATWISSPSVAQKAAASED
row,IC50 [nM],Structure (SMILES)
1,58.7,"CNC(=O)c1c(NC(=O)c2nc(C3CC3)cnc2Nc2cncnc2)cnn1CC(C)C [Example 137, 6-Cyclopropyl-3-(pyrimidin-5-ylamino)-pyrazine-2-carboxylic acid (1-isobutyl-5-methylcarbamoyl-1H-pyrazol-4-yl)-amide]"
2,24.9,"CC(C)n1ncc(NC(=O)c2nc(C3CC3)cnc2Nc2cncnc2)c1C(=O)NCC(C)(C)O [Example 138, 6-Cyclopropyl-3-(pyrimidin-5-ylamino)-pyrazine-2-carboxylic acid [5-(2-hydroxy-2-methyl-propylcarbamoyl)-1-isopropyl-1H-pyrazol-4-yl]-amide]"
3,11.6,"CNC(=O)c1c(NC(=O)c2nc(C3CC3)cnc2Nc2cncnc2)cnn1C(C)C [Example 139, 6-Cyclopropyl-3-(pyrimidin-5-ylamino)-pyrazine-2-carboxylic acid (1-isopropyl-5-methylcarbamoyl-1H-pyrazol-4-yl)-amide]"
4,3,"Cn1ncc(NC(=O)c2nc(C3CC3)cnc2Nc2cncnc2)c1C(=O)NCCC(C)(C)O [Example 140, 6-Cyclopropyl-3-(pyrimidin-5-ylamino)-pyrazine-2-carboxylic acid [5-(3-hydroxy-3-methyl-butylcarbamoyl)-1-methyl-1H-pyrazol-4-yl]-amide]"
5,1.1,"Cn1ncc(NC(=O)c2nc(C3CC3)cnc2Nc2cncnc2)c1C(=O)NCC(C)(C)CO [Example 142, 6-Cyclopropyl-3-(pyrimidin-5-ylamino)-pyrazine-2-carboxylic acid [5-(3-hydroxy-2,2-dimethyl-propylcarbamoyl)-1-methyl-1H-pyrazol-4-yl]-amide]"
6,23.3,"Cn1ncc(NC(=O)c2nc(C3CC3)cnc2Nc2cncnc2)c1C(=O)N1CC(F)(F)C1 [Example 143, 6-Cyclopropyl-3-(pyrimidin-5-ylamino)-pyrazine-2-carboxylic acid [5-(3,3-difluoro-azetidine-1-carbonyl)-1-methyl-1H-pyrazol-4-yl]-amide]"
7,2.1,"Cn1ncc(NC(=O)c2nc(C3CC3)cnc2Nc2cncnc2)c1C(=O)NCC(F)(F)F [Example 144, 6-Cyclopropyl-3-(pyrimidin-5-ylamino)-pyrazine-2-carboxylic acid [1-methyl-5-(2,2,2-trifluoro-ethylcarbamoyl)-1H-pyrazol-4-yl]-amide]"
8,2.9,"Cn1ncc(NC(=O)c2nc(C3CC3)cnc2Nc2cncnc2)c1C(=O)NCC(F)F [Example 145, 6-Cyclopropyl-3-(pyrimidin-5-ylamino)-pyrazine-2-carboxylic acid [5-(2,2-difluoro-ethylcarbamoyl)-1-methyl-1H-pyrazol-4-yl]-amide]"
9,1.7,"Cn1ncc(NC(=O)c2nc(C3CC3)cnc2Nc2cncnc2)c1C(=O)NCC(O)C(F)(F)F (stereo not shown) [Example 146, 6-Cyclopropyl-3-(pyrimidin-5-ylamino)-pyrazine-2-carboxylic acid [1-methyl-5-(3,3,3-trifluoro-2-hydroxy-propylcarbamoyl)-1H-pyrazol-4-yl]-amide]"
10,1.2,"CNC(=O)c1c(NC(=O)c2nc(C3CC3)cnc2Nc2cncnc2)cnn1CCOC [Example 147, 6-Cyclopropyl-3-(pyrimidin-5-ylamino)-pyrazine-2-carboxylic acid [1-(2-methoxy-ethyl)-5-methylcarbamoyl-1H-pyrazol-4-yl]-amide]"
11,14.4,"CNC(=O)c1c(NC(=O)c2nc(C3CC3)ccc2Nc2cncnc2)cnn1C [Example 148, 6-Cyclopropyl-3-(pyrimidin-5-ylamino)-pyridine-2-carboxylic acid (1-methyl-5-methylcarbamoyl-1H-pyrazol-4-yl)-amide]"
12,8.5,"Cn1ncc(NC(=O)c2nc(C3CC3)cnc2Nc2cncnc2)c1C(N)=O [Example 150, 6-Cyclopropyl-3-(pyrimidin-5-ylamino)-pyrazine-2-carboxylic acid (5-carbamoyl-1-methyl-1H-pyrazol-4-yl)-amide]"
13,2.7,"COC(C)(C)CNC(=O)c1c(NC(=O)c2nc(C3CC3)cnc2Nc2cncnc2)cnn1C [Example 151, 6-Cyclopropyl-3-(pyrimidin-5-ylamino)-pyrazine-2-carboxylic acid [5-(2-methoxy-2-methyl-propylcarbamoyl)-1-methyl-1H-pyrazol-4-yl]-amide]"
14,3.4,"Cn1ncc(NC(=O)c2nc(C3CC3)cnc2Nc2cncnc2)c1C(=O)NC(C)(C)CO [Example 152, 6-Cyclopropyl-3-(pyrimidin-5-ylamino)-pyrazine-2-carboxylic acid [5-(2-hydroxy-1,1-dimethyl-ethylcarbamoyl)-1-methyl-1H-pyrazol-4-yl]-amide]"
15,16.1,"CN(CC(C)(C)O)C(=O)c1c(NC(=O)c2nc(C3CC3)cnc2Nc2cncnc2)cnn1C [Example 153, 6-Cyclopropyl-3-(pyrimidin-5-ylamino)-pyrazine-2-carboxylic acid {5-[(2-hydroxy-2-methyl-propyl)-methyl-carbamoyl]-1-methyl-1H-pyrazol-4-yl}-amide]"
16,12.7,"Cn1ncc(NC(=O)c2nc(C3CC3)cnc2Nc2cncnc2)c1C(=O)N1CCC1 [Example 155, 6-Cyclopropyl-3-(pyrimidin-5-ylamino)-pyrazine-2-carboxylic acid [5-(azetidine-1-carbonyl)-1-methyl-1H-pyrazol-4-yl]-amide]"

row,IC50 [nM],Structure (SMILES)
1,11.2,"Cn1ncc(NC(=O)c2nc(C3CC3)cnc2Nc2cncnc2)c1C(=O)N1CCCC1 [Example 156, 6-Cyclopropyl-3-(pyrimidin-5-ylamino)-pyrazine-2-carboxylic acid [1-methyl-5-(pyrrolidine-1-carbonyl)-1H-pyrazol-4-yl]-amide]"
2,0.8,"CNC(=O)c1nc(C2CC2)ccc1NC(=O)c1nc(C2CC2)cnc1Nc1cncnc1 [Example 158, 6-Cyclopropyl-3-(pyrimidin-5-ylamino)-pyrazine-2-carboxylic acid (6-cyclopropyl-2-methylcarbamoyl-pyridin-3-yl)-amide]"
3,0.4,"CC(C)(O)CNC(=O)c1nc(C2CC2)ccc1NC(=O)c1nc(C2CC2)cnc1Nc1cncnc1 [Example 159, 6-Cyclopropyl-3-(pyrimidin-5-ylamino)-pyrazine-2-carboxylic acid [6-cyclopropyl-2-(2-hydroxy-2-methyl-propylcarbamoyl)-pyridin-3-yl]-amide]"
4,2.9,"CNC(=O)c1c(NC(=O)c2nc(C3CCOC3)cnc2Nc2cncnc2)cnn1C (stereo not shown) [Example 160, 3-(Pyrimidin-5-ylamino)-6-(tetrahydro-furan-3-yl)-pyrazine-2-carboxylic acid (1-methyl-5-methylcarbamoyl-1H-pyrazol-4-yl)-amide]"
5,124,"Cn1ncc(NC(=O)c2nc(C3CC3)c(C3CCCO3)nc2Nc2cncnc2)c1C(=O)NCCF (stereo not shown) [Example 162, 6-Cyclopropyl-3-(pyrimidin-5-ylamino)-5-(tetrahydro-furan-2-yl)-pyrazine-2-carboxylic acid [5-(2-fluoro-ethylcarbamoyl)-1-methyl-1H-pyrazol-4-yl]-amide]"
6,6.2,"O=C(NC1CC1)c1nocc1NC(=O)c1nc(C2CC2)cnc1Nc1cncnc1 [Example 163, 6-Cyclopropyl-3-(pyrimidin-5-ylamino)-pyrazine-2-carboxylic acid (3-cyclopropylcarbamoyl-isoxazol-4-yl)-amide]"
7,5.2,"CC(NC(=O)c1c(NC(=O)c2nc(C3CC3)cnc2Nc2cncnc2)cnn1C)C(F)(F)F (stereo not shown) [Example 164, 6-Cyclopropyl-3-(pyrimidin-5-ylamino)-pyrazine-2-carboxylic acid [1-methyl-5-(2,2,2-trifluoro-1-methyl-ethylcarbamoyl)-1H-pyrazol-4-yl]-amide]"
8,2.2,"Cn1ncc(NC(=O)c2nc(C3CC3)cnc2Nc2cncnc2)c1C(=O)NCC(C)(F)F [Example 165, 6-Cyclopropyl-3-(pyrimidin-5-ylamino)-pyrazine-2-carboxylic acid [5-(2,2-difluoro-propylcarbamoyl)-1-methyl-1H-pyrazol-4-yl]-amide]"
9,335,"CNC(=O)c1c(NC(=O)c2nc(Cl)ccc2Nc2cncnc2)cnn1C [Example 166, 6-Chloro-3-(pyrimidin-5-ylamino)-pyridine-2-carboxylic acid (1-methyl-5-methylcarbamoyl-1H-pyrazol-4-yl)-amide]"
10,4.4,"CC(C)CNC(=O)c1c(NC(=O)c2nc(C3CC3)cnc2Nc2cncnc2)cnn1C [Example 167, 6-Cyclopropyl-3-(pyrimidin-5-ylamino)-pyrazine-2-carboxylic acid (5-isobutylcarbamoyl-1-methyl-1H-pyrazol-4-yl)-amide]"
11,32.9,"Cn1ncc(NC(=O)c2nc(C3CC3)cnc2Nc2cncnc2)c1C(=O)N1CCCCC1 [Example 168, 6-Cyclopropyl-3-(pyrimidin-5-ylamino)-pyrazine-2-carboxylic acid [1-methyl-5-(piperidine-1-carbonyl)-1H-pyrazol-4-yl]-amide]"
12,22.3,"CCn1ncc(NC(=O)c2nc(C3CC3)cnc2Nc2cncnc2)c1C(=O)N(C)C [Example 169, 6-Cyclopropyl-3-(pyrimidin-5-ylamino)-pyrazine-2-carboxylic acid (5-dimethylcarbamoyl-1-ethyl-1H-pyrazol-4-yl)-amide]"
13,88.9,"CCn1ncc(NC(=O)c2nc(C3CC3)cnc2Nc2cncnc2)c1C(=O)N1CCOCC1 [Example 170, 6-Cyclopropyl-3-(pyrimidin-5-ylamino)-pyrazine-2-carboxylic acid [1-ethyl-5-(morpholine-4-carbonyl)-1H-pyrazol-4-yl]-amide]"
14,2.8,"Cn1ncc(NC(=O)c2nc(C3CC3)cnc2Nc2cncnc2)c1C(=O)NCCF [Example 171, 6-Cyclopropyl-3-(pyrimidin-5-ylamino)-pyrazine-2-carboxylic acid [5-(2-fluoro-ethylcarbamoyl)-1-methyl-1H-pyrazol-4-yl]-amide]"
15,12.9,"CC(C)(O)CNC(=O)c1c(NC(=O)c2nc(C3CC3)cnc2Nc2cncnc2)cnn1CCC(F)(F)F [Example 172, 6-Cyclopropyl-3-(pyrimidin-5-ylamino)-pyrazine-2-carboxylic acid [5-(2-hydroxy-2-methyl-propylcarbamoyl)-1-(3,3,3-trifluoro-propyl)-1H-pyrazol-4-yl]-amide]"
